From patent US20100029652A1, “Combination Therapy For Treating Hepatitis C Infections” (ACHILLION PHARMACEUTICALS, INC., priority 2007, published 2010)

Key:
[1] = tested on: HCV replicon in Huh-9-13 cells; assay: Long term combination study: replicon curing assay, colony formation after G418 selection; type: cell-based, hepatitis C virus; conditions: approximately 5×EC50
Method: In other repetitions of this experiment, treatment time varied from 7 to 10 days. Cells were passaged once every 3 days into new plates at the same density (10^5 cells/plate) and with fresh compounds. No G418 was present during the 9 day treatment. On day 10, the cells were passaged again to new plates at a density of 10^5 cells/plate, respectively, and were treated only with G418 for approximately 3 more weeks. […] During the 2˜3 weeks, the old media were replaced with fresh media twice a week. The colonies were fixed with 10% formaldehyde and stained with 2% crystal violet in 20% ethanol.
In this assay, the number of the cells in which the replicons still remained after the 9-day treatment was quantified based on the number of the colonies formed after G418 selection.

[2] = tested on: HCV replicon (subtype 1b, Con-1) in Huh-luc/neo cells; assay: Short term combination study: HCV replicon luciferase assay in Huh-luc/neo cells, 3-days treatment; type: cell-based, hepatitis C virus; conditions: for CI (SD) at Replicon inhibition of 50% / CI (SD) at Replicon inhibition of 75% / CI (SD) at Replicon inhibition of 90%: combined with ACH-806, Chou and Talalay; for CI (SD) at Replicon inhibition of 50% / CI (SD) at Replicon inhibition of 75% / CI (SD) at Replicon inhibition of 90% / Overall combinatory antiviral activity / Volume (SD) Antagonism / Volume (SD) Synergy: 3-days treatment; for Overall combinatory antiviral activity / Volume (SD) Antagonism / Volume (SD) Synergy: drug combined with ACH-806; for Volume (SD) Antagonism / Volume (SD) Synergy: Prichard and Shipman model; for combination effect on antiviral activity: in combination with ACH-806, Huh-luc/neo cells treated for 3 days
Method: Huh-luc/neo cells were seeded in 96-well plates at a density of 7000 cells/per well. […] Dose-response curves for the individual compounds and their combinations were all run in quadruplicate.
The experimental data were analyzed using CalcuSyn (Biosoft, Ferguson, Mo.), a computer program based on the method of Chou and Talalay (Chou, T. C. and P. Talalay, Quantitative analysis of dose-effect relationships: the combined effects of multiple drugs or enzyme inhibitors (1984) Adv. Enzyme Regul. 22: 27-55). In this model, the dose-effect curves for each drug or drug combination are converted to median-effect plots with the program. The effect of combination is then compared to that of a single agent. A combination index (CI) value for each experimental combination is calculated on the basis of the following equation:
CI=[(D)1/(Dx)1]+[(D)2/(Dx)2]+[(D)1(D)2/(Dx)1(Dx)2],
By convention a CI of <0.9 is considered synergistic, a CI of ≧0.9 or ≦1.1 is considered additive, and a CI of >1.1 is deemed antagonistic.
The extent of synergy or antagonism was also assessed in a three-dimensional analytical method developed by Prichard and Shipman (Prichard, M. Shipman, K., A three-dimensional model to analyze drug-drug interactions, (1990) Antiviral Res. 14: 181-206). In this model, the theoretical additive effect is calculated from the dose-response curves of individual compounds by the equation Z=X+Y(1−X), where X and Y represent the inhibition produced by drug 1 alone and drug 2 alone, and respectively Z represents the effect produced by the combination of drug 1 and drug 2. The theoretical additive surface is subtracted from the actual experimental surface, resulting in a surface that would appear as a horizontal plane at 0% inhibition if the combination were merely additive. Any peak above this plane would indicate synergy, whereas any depression below it would indicate antagonism. The 95% confidence intervals for the experimental dose-response surface are used to evaluate the data statistically. The volume of the peak or depression is calculated to quantify the overall synergy or antagonism produced. Based on Prichard et al., volumes of synergy greater than 50 μM^2% may be considered significant as may volumes of antagonism of less than −50 μM^2%, wherein the units of the X and Y axis are both μM and the unit of the Z axis is the percentage of inhibition. Results

[3] = single agent by itself, 9-day treatment
[4] = in combination with ACH-806, 9-day treatment

Structure (SMILES) | log reduction of replicon-containing cells [1, 3] | replicon-containing cells cured [1, 3] | CI (SD) at Replicon inhibition of 50% ([2]; molar ratio 1:10) | CI (SD) at Replicon inhibition of 75% ([2]; molar ratio 1:10) | CI (SD) at Replicon inhibition of 90% ([2]; molar ratio 1:10) | CI (SD) at Replicon inhibition of 50% ([2]; molar ratio 1:20) | CI (SD) at Replicon inhibition of 75% ([2]; molar ratio 1:20) | CI (SD) at Replicon inhibition of 90% ([2]; molar ratio 1:20) | Overall combinatory antiviral activity [2] | Volume (SD) Antagonism [2] | Volume (SD) Synergy [2] | combination effect on antiviral activity [2] | CI (SD) at Replicon inhibition of 50% ([2]; molar ratio 1:16) | CI (SD) at Replicon inhibition of 75% ([2]; molar ratio 1:16) | CI (SD) at Replicon inhibition of 90% ([2]; molar ratio 1:16) | CI (SD) at Replicon inhibition of 50% ([2]; molar ratio 1:32) | CI (SD) at Replicon inhibition of 75% ([2]; molar ratio 1:32) | CI (SD) at Replicon inhibition of 90% ([2]; molar ratio 1:32) | log reduction of replicon-containing cells [1, 4] | replicon-containing cells cured [1, 4]
CCCCCOc1ccc(NC(=S)NC(=O)c2cccnc2)cc1C(F)(F)F [ACH-806] | 1 log | about 90% |  |  |  |  |  |  |  |  |  |  |  |  |  |  |  |  |  | 
CCC[C@H](NC(=O)[C@@H]1[C@H]2CCC[C@H]2CN1C(=O)[C@@H](NC(=O)[C@@H](NC(=O)c1cnccn1)C1CCCCC1)C(C)(C)C)C(=O)C(=O)NC1CC1 [VX-950, telaprevir] |  |  | 0.86 (0.09) | 0.82 (0.11) | 0.83 (0.13) | 0.79 (0.06) | 0.61 (0.12) | 0.50 (0.15) | Synergy | 8 (3) μM^2% | 119 (4) μM^2% | synergistic antiviral activity |  |  |  |  |  |  |  | 
CC1(O)C(O)C(CO)OC1n1ccc(N)nc1=O (centres unmarked) [NM-107] | 1 log | about 90% |  |  |  |  |  |  | Synergy | 2 (2) μM^2% | 116 (77) μM^2% | synergistic antiviral activity | 0.69 (0.02) | 0.72 (0.06) | 0.79 (0.12) | 0.67 (0.07) | 0.71 (0.05) | 0.83 (0.25) | 4 log | ~99.99%
